US9492501B2, “Antiviral agent” (priority 2009, dated 2016)

Experiments:
[1] = system: HIV-1 (proviral genome NL4.3, strain LAI); assay: HIV-1 replication, ELISA of viral p24 capsid protein in supernatant of infected Jurkat 1G5 cells; format: cell-based; settings: Human immunodeficiency virus 1; 10 μM AZT, treatment 24 hours, p24 in supernatant, Jurkat 1G5
Text: (§1) Method: a Jurkat CD4+ T lymphocyte cell line (line 1G5) having integrated into its genome a construction comprising a luciferase reporter gene the expression of which is controlled by the HIV-1 promoter (HIV-1 LTR; HIV-LTR Jurkat line) was used. The measurement of luciferase activity from the cell extracts therefore makes it possible to estimate the HIV-1 transcriptional activity.
(§2) The Jurkat HIV-LTR and Jurkat 1G5 lines were transfected by means of the DEAE-dextran technique with the proviral genome NL4.3 (complete HIV-1 genome, strain LAI).
(§3) The HIV-LTR Jurkat and 1G5 Jurkat lines thus infected, are treated 24 hours later with HPBP/PON protein complexes or with purified PON or HPBP proteins at a final concentration of 2 μg/mL of medium (52 nM of protein alone).
(§4) The cells and the cell supernatant are sampled after treatment for 24 hours.
(§5) The transcriptional activity is measured by carrying out a luciferase test. The intensity of the HIV-1 replication is measured by means of ELISA assay of the quantity of viral p24 capsid proteins present in the supernatant of the cell cultures of the infected 1G5 lines [Rohr, O., et al. (2000). The Journal of Biological Chemistry 275, 2654-2660]. […]
(§6) The transcriptional activity and inhibition of the replication are measured as described in Example 6.

[2] = system: HIV-1 promoter (HIV-1 LTR); assay: HIV-1 transcriptional activity, luciferase test in HIV-LTR Jurkat line; format: cell-based; settings: 10 μM AZT, treatment 24 hours, FIG. 5 (luciferase activity)
Text: as §1, §2, §3, §4, §5, §6

With `Cc1cn([C@H]2C[C@H](N=[N+]=[N-])[C@@H](CO)O2)c(=O)[nH]c1=O` [AZT, zidovudine, reference compound] the inhibition at 10 µM [1] was 60% and the “effect on the replication of the virus (FIG. 5)” value [2] was “no effect”.
